Where “and” joins values, the source holds several entries; their conditions need not be identical. Equal entries are not always repeated. Entries after “also recorded” stand apart in the source; their conditions may differ.
Columns and labels:
[1] = tested on: H3K27me3 in MC3T3 cells; experiment: Western blotting for H3K27me3 in MC3T3 cells treated with EED inhibitor; format: cell-based, murine; conditions: A-395 at 0.02-10 mM as printed, FIG. 5A
Experimental: (§1) MC3T3 sc4 murine calvarial osteoblasts were purchased from American Type Culture Collection and maintained in α-minimal essential medium without ascorbic acid (Gibco) containing 10% fetal bovine serum (Atlanta Biologicals), 100 units/mL penicillin, and 100 µg/mL streptomycin (Gibco).
MC3T3 cells (4,000 cells/cm^2) were plated in 6-well plates in maintenance medium. […] Cells were lysed in radioimmunoprecipitation buffer (150 mm NaCl, 50 mm Tris, pH 7.4, 1% sodium deoxycholate, 0.1% sodium dodecyl sulfate, 1% Triton X-100) supplemented with protease inhibitor mixture (Sigma) and phenylmethylsulfonyl fluoride (Sigma). Lysates were cleared by centrifugation. Protein concentrations were determined by the DC Protein Assay (Bio-Rad). Proteins were resolved by SDS-PAGE and transferred to polyvinylidene difluoride membranes. After blocking in 5% nonfat dry milk for 45 minutes at room temperature, primary antibodies were added overnight at 4° C., followed by secondary antibodies for 1 hour at room temperature. Proteins were visualized using an ECL Prime detection kit.

[2] = tested on: MC3T3 cells; experiment: Osteogenic differentiation of MC3T3 cells (RT-qPCR of osteogenic genes, alizarin red staining); format: cell-based, murine; conditions: differentiating MC3T3 cells; FIG. 5B-5F
Experimental: as §1
For osteogenic differentiation, MC3T3s were seeded in respective maintenance medium at a density of 10,000 cells/cm^2. Next day, osteogenic medium supplemented with vehicle, GSK126 (Xcess Biociences Inc.) or A-395 (Sigma) was added to the cells. Osteogenic medium for MC3T3 cells consisted of 50 μg/mL ascorbic acid (Sigma) and 4 mm β-glycerol phosphate (Sigma). Three days later, old medium was replaced with a fresh batch of osteogenic medium supplemented with vehicle, GSK126, or A-395. On day 6 of differentiation, fresh osteogenic medium without supplements was added and replenished every 2 to 3 days. On day 14, cells were fixed in 10% neutral buffered formalin and stained with 2% alizarin red to visualize calcium deposition.
Total RNA was isolated using the Direct-zol™ RNA kit (Zymo Research) and quantified using the NanoDrop 2000 spectrophotometer (Thermo Fischer Scientific). RNA was then reverse transcribed into cDNA by the SuperScript III First-Strand Synthesis System (Invitrogen). Transcript levels were then measured using the 2^ΔΔct method and normalized GAPDH (set at 100), a housekeeping gene.

[3] = tested on: OI mice; experiment: μCT analysis of femurs of OI mice treated with A-395 for 5 weeks; format: in vivo
Experimental: (§2) Five-week-old OI mice (mice harboring the Col1a2 c.2098G>T p.Gly700Cys allele […]) were subcutaneously injected with DMSO (vehicle) or EED inhibitor A-395 (Sigma) at concentrations of either 100 mg/kg or 300 mg/kg twice weekly for 5 weeks.
Femurs of injected mice were scanned by μCT Skyscan 1076 (Brunker) at the maximal potencial 60 kV and 167 μA with 0.25 mm thick aluminum filter and at the voxel resolution of 9 μm. The μCT scans were performed over 360° of total rotation with each angular rotation step of 0.7°. […] The trabecular region of interest were selected with reference to the growth plate. The 2D images were created using CTAn siftware package (Skyscan). The 3D μCT models of each femur were created using a 3D reconstruction software package (Skyscan).
(§3) 5-week-old OI mice were treated twice weekly with a subcutaneous injection of either vehicle (DMSO) or EED inhibitor A-395 had concentrations of 300 mg/kg or 100 mg/kg. These mice were treated for five weeks and then analyzed for changes in bone structure.

[4] = Weight, femur length and toxicity in OI mice treated with A-395 for 5 weeks; format: in vivo; conditions: for Weigh at 3 weeks: 3 weeks of age, prior to treatment; for Weight at 5 weeks: start of treatment; for Weight at 10 weeks: individual OI mice
Experimental: as §2, §3
OI mice were weighed at 3 weeks of age prior to treatment, at the start of treatment at 5 weeks, and after 5 weeks of treatment with vehicle (Veh), 300 mg/kg (300), or 100 mg/kg (100) of A-395.

[5] = tested on: G610C mice; experiment: μCT analysis of G610C mice treated with A-395 for 3 weeks; format: in vivo; conditions: male G610C mice
Experimental: (§4) G610C mice were treat with the EED inhibitor A-395. […] The dose of A-395 was lowered to see if that improved the health of the mice and bone formation. Three 5-week-old male G610C mice were treated with DMSO control or either 50 mg/kg or 100 mg/kg A-395 twice a week by subcutaneous injection for 3 weeks.

[6] = tested on: G610C mice; experiment: Three-point bending of G610C mice treated with A-395 for 3 weeks; format: in vivo; conditions: male G610C mice
Description: Three-point bend fixture was mounted on a servohydrauilic mechanical testing frame (#312, MTS Systems) instrumented with a 100-N capacity load cell (#3397-25, Leebow Products). Femurs were be mounted on supports spanning 8 mm. Point loading was applied to the femur mid-shaft allowing the bones to flex about an axis aligned with the medial-lateral line. Loading was applied under displacement control at a rate of 20 mm/minute until fracture. Force and displacement data were be sampled at 256 Hz. Peak load and peak displacement was be quantified. The stiffness was be calculated from the slope of the linear region of the force displacement curve.
as §4

[7] = tested on: G610C mice; experiment: μCT analysis of G610C mice treated with MAK683 for 3 weeks (three mice); format: in vivo; conditions: for bone density / trabecular structure: G610C mice, vs vehicle treated control; for bone parameters (μCT) vs controls: male G610C mice, 3 weeks
Experimental: To determine if MAK683 improved bone formation in OI, three 5-week-old male G610C mice were injected SQ with 50 mg/kg MAK683 twice a week for 3 weeks.

[8] = tested on: OVX mice; experiment: μCT analysis of OVX mice treated with MAK683; format: in vivo, C57BL/6 female mice
Experimental: To assess whether EED inhibition could rescue low bone mass due to osteoporosis, ovariectomy (OVX) or sham (Sham) surgery on was performed 15-week-old C57BL/6 female mice with 6 animals per group. On the day of surgery, all mice were imaged using a PIXImus densitometer to measure bone density prior to OVX. Mice were allowed 7 days to recover. Mice in each group were randomized to EED inhibitor treatment or control. These groups were sham/vehicle (Sh−), sham/EED (SH+), OVX/vehicle (OV−), and OVX/EED (OV+). Again, each mouse was imaged to determine bone density after OVX prior to EED treatment. Mice were then injected with vehicle control or 20 mg/kg MAK683 SQ twice weekly for 3 weeks.

[9] = tested on: G610C mice; experiment: μCT analysis of large cohort of G610C mice treated with MAK683; format: in vivo; conditions: for bone density (μCT) / trabecular structure: G610C mice; for bone density (μCT): 3 weeks, 9 mice per group; for trabecular structure: vs vehicle treated control; for bone quality parameters: OI mice
Experimental: One day prior to treatment 5-week-old male G610C mice were weighed to determine dosing. MAK683 was dissolved in DMSO for each treatment arm of 5, 10, 20, or 50 mg/kg for selected mice. The volume was adjusted to […] for injection using corn oil. Mice were injected subcutaneously twice weekly for 3 weeks. After 3 weeks, mice were euthanized, and bone was harvested.
To further examine if different doses of MAK683 improved bone formation in 01, SQ nine 5-week-old male G610C mice were injected with 50, 20, 10, or 5 mg/kg MAK683 twice a week for 3 weeks.

[10] = 100 mg/kg, vs vehicle, 100 mg/kg
[11] = 300 mg/kg, vs vehicle, 300 mg/kg
[12] = individual OI mice of the 100 mg/kg group, in g (unit assumed)
[13] = individual OI mice of the 300 mg/kg group, in g (unit assumed)
[14] = 20 mg/kg, vs OVX vehicle treated control

Compound: CN(C)C1CN(C2CCc3cccc(F)c32)CC1c1ccc(N2CCN(S(C)(=O)=O)CC2)cc1 (stereo not drawn) [A-395, 1-(7-fluoro-2,3-dihydro-1H-inden-1-yl)-N,N-dimethyl-4-[4-(4-methylsulfonylpiperazin-1-yl)phenyl]pyrrolidin-3-amine]
- H3K27me3 (western blotting) [1]: reduced H3K27me3 in a concentration-dependent manner
- osteogenic differentiation (osteogenic genes, alizarin red staining) [2]: stimulates osteogenesis; also recorded: more potent at stimulating osteogenic differentiation
- bone surface density ([3]; 100 mg/kg): increase
- bone surface to volume ratio ([3]; 100 mg/kg): decrease
- intersection surface ([3]; 100 mg/kg): no change
- trabecular number ([3]; 100 mg/kg): increase
- trabecular pattern ([3]; 100 mg/kg): decrease
- trabecular thickness ([3]; 100 mg/kg): increase
- bone formation within the femurs (μCT) ([3]; 100 mg/kg SC twice weekly): robust bone formation
- bone surface ([3]; 100 mg/kg, vs vehicle): increase
- trabecular bone ([3]; 100 mg/kg, vs vehicle): increase in trabecular bone
- bone volume [3, 10]: increased
- percent bone per volume [3, 10]: increased
- tissue surface [3, 10]: increased
- tissue volume [3, 10]: increased
- bone surface to volume ratio ([3]; 300 mg/kg): unchanged
- intersection surface ([3]; 300 mg/kg): down
- trabecular number ([3]; 300 mg/kg): decrease
- trabecular pattern ([3]; 300 mg/kg): slight decrease
- trabecular thickness ([3]; 300 mg/kg): slight decrease
- bone mineralization (μCT) ([3]; 300 mg/kg SC twice weekly): loss of bone mineralization
- bone density ([3]; 300 mg/kg, FIG. 11A): down
- trabecular bone ([3]; 300 mg/kg, vs vehicle): loss of trabecular bone
- bone surface [3, 11]: decrease and down
- bone volume [3, 11]: decreased
- percent bone per volume [3, 11]: decreased
- tissue volume [3, 11]: increased
- toxicity to the mouse ([4]; OI mice, 300 mg/kg SC twice weekly, 5 weeks): toxic
- weight (change vs vehicle) ([4]; OI mice, 300 mg/kg or 100 mg/kg, after 5 weeks of treatment, vs vehicle): no significant changes
- Weigh at 3 weeks [4, 12]: 10.5 and 10.2 and 9.6
- Weight at 5 weeks [4, 12]: 21.3 and 21.6 and 19.9
- Weigh at 3 weeks [4, 13]: 11.1 and 11.9 and 14.0
- Weight at 5 weeks [4, 13]: 20.9 and 22.6 and 24.0
- Weight at 10 weeks ([4]; 100 mg/kg, after 5 weeks of treatment, 100 mg/kg): 26.5 (2×) and 28.0
- Weight at 10 weeks ([4]; 300 mg/kg, after 5 weeks of treatment, 300 mg/kg, in g (unit assumed)): 26.6 and 27.8 and 29.0
- bone formation (μCT) ([5]; 50 mg/kg SC twice a week): increase in bone formation
- bone formation (μCT) ([5]; 100 mg/kg SC twice a week): increase in bone formation
- bone (μCT) vs controls ([5]; 300 mg/kg SQ twice a week): less bone than controls
- health of treated mice at end of protocol ([5]; 300 mg/kg SQ twice a week): losing weight and appeared sickly
- stiffness (three-point bending) ([6]; 50 mg/kg SC twice a week): improved stiffness
- stiffness (three-point bending) ([6]; 100 mg/kg SC twice a week): improved stiffness

Compound: Cc1ncccc1-c1cnc(NCc2c(F)ccc3c2CCO3)n2cnnc12 [MAK683, N-[(5-fluoro-2,3-dihydro-1-benzofuran-4-yl)methyl]-8-(2-methylpyridin-3-yl)-[1,2,4]triazolo[4,3-c]pyrimidin-5-amine]
- bone density ([7]; 20 mg/kg): significant increase
- trabecular structure ([7]; 20 mg/kg): significant increase
- bone density ([7]; 50 mg/kg): significant increase
- trabecular structure ([7]; 50 mg/kg): significant increase
- bone parameters (μCT) vs controls ([7]; 20 mg/kg SQ twice a week): improvement in essentially all bone parameters
- bone parameters (μCT) vs controls ([7]; 50 mg/kg SQ twice a week): improvement in many bone parameters
- bone loss (μCT) ([8]; 20 mg/kg SQ twice weekly, 3 weeks): prevented bone loss
- bone density [8, 14]: significant intention
- trabecular number [8, 14]: significant intention
- bone density (μCT) ([9]; 5 mg/kg SQ twice a week): possible minor improvement
- bone density (μCT) ([9]; 10 mg/kg SQ twice a week, 10 mg/kg): visual improvement; also recorded: significant increase
- trabecular structure ([9]; 10 mg/kg): significant increase
- bone density (μCT) ([9]; 20 mg/kg SQ twice a week, 20 mg/kg): visual improvement; also recorded: significant increase
- trabecular structure ([9]; 20 mg/kg): significant increase
- bone density (μCT) ([9]; 50 mg/kg SQ twice a week): possible minor improvement
- bone parameters (μCT) vs controls ([9]; G610C mice, 50, 20, 10, or 5 mg/kg, FIG. 17B-M): improvement in many bone parameters
- bone quality parameters ([9]; 5 mg/kg): trend in increased
- bone quality parameters ([9]; 50 mg/kg): trend in increased

Compound: CS(=O)(=O)c1ccc(-c2cnc(NCc3ccco3)n3cnnc23)cc1 [EED226, n-(2-furanylmethyl)-8-[4-(methylsulfonyl)phenyl]-1,2,4-triazolo[4,3-c]pyrimidin-5-amine]
- H3K27me3 (western blotting) [1]: reduced H3K27me3 in a concentration-dependent manner
